Measured values: US20110064794A1, “Drug Delivery System, its Preparation Process and Use” (priority 2008, published 2011)

Tests used:
white blood cell = experiment: routine white blood cell count in H22 model mice; type: in vivo, nude mice; conditions: 20 mg·kg^−1
Description: (§1) Transplanted liver cancer (H22) model in nude mice were established for antitumor drug tests. The nude mice were randomly divided into six groups (10 animals for each group): blank control group, cyclophosphamide positive control group (CTX 20 mg·kg^−1), treatment groups (high, medium and low dosage, 0.20 mg·kg^−1, 0.10 mg·kg^−1 and 0.05 mg·kg^−1) and solution group (non-nanoparticle formulation). The negative control group received injection of physiological saline. After inoculation for four days and with the tumors grown to a certain volume, the mice were treated on the 5th, 7th, 9th, 11th and 13th day. On the 14th day, the mice were sacrificed by cervical dislocation and weighed, dissected to peel off the tumor tissue which was weighed by an electronic balance. The tumor-inhibition rates were calculated by using the following formula: […]
(§2) all the data were expressed as mean±standard deviation (i.e. x±SD); the mice were bled at caudal vein for routine white blood cell count.

[1] = tested on: Transplanted liver cancer (H22); experiment: anti-tumor test in transplanted liver cancer (H22) model; type: in vivo, nude mice; conditions: 20 mg/kg
Description: as §1, §2

[2] = tested on: human laryngocarcinoma epithelial cells (Hep-2); experiment: MTT inhibition of tumor cell growth, Hep-2; type: cell-based; conditions: 0.1, 1, 10 and 100 μM in DMSO, different culture times (FIG. 7)
Text: Microplate Reader (Switzerland Sunrise); 3-(4,5-dimethylthiazol-2-yl)-2, 5-diphenyl-2H-tetrazolium bromide (MTT) (America Fluka); DMSO (Sigma); RPMI 1640 media (GIBCO); fetal bovine serum (FBS) (Tian Jin TBD Center for Biotechnology Development).
Studies were respectively carried out on the inhibition effect of cucurbitacin B HSA nanoparticle on the growth of tumor cells in vitro in human laryngocarcinoma epithelial cells (Hep-2), human hepatoma carcinoma cell (HepG-2), human adenocarcinoma of lung cell (A549), and inhibition effect of the same dosage of cucurbitacin B emulsion and liposomes in these cells were compared.
Cells were cultured in RPMI 1640 media containing 10% FBS in an incubator at 37° C. and 5% CO2, and passaged every 3 to 4 days. […] OD (optical density) value of each well was determined in the microplate reader (at 570 nm wavelength). Cell inhibition rate was calculated according to OD value, and the following formula was used: cell inhibition rate (IR)=[(mean OD value of control group−mean OD value of blank group)−(mean OD value of test groups−mean OD value of blank group)]/(mean OD value of control group−mean OD value of blank group). […]
Inhibition effects of various formulations of CuB (cucurbitacin B/HSA solution, CuB HSA nanoparticle, CuB liposome and CuB emulsion) on Hep-2, A549 and HepG-2 tumor cells were detected.

Compound	leukocyte number (white blood cell) [L⁻¹]	Body weight (g) begin [1] [g]	Body weight (g) end [1] [g]	Number of mice (begin/end) [1]	Tumor-inhibition rate (%) ([1]; day 14)	Weight of tumor (g) (x ± SD) ([1]; day 14)	inhibition effect on the growth of Hep-2 cells [2]
O=P1(N(CCCl)CCCl)NCCCO1 (stereo not shown) [CTX, cyclophosphamide]	3.11e+09	19.77	21.08	10/9	55.3	1.26 ± 0.63	
CC(=O)OC(C)(C)/C=C/C(=O)[C@](C)(O)[C@H]1[C@H](O)C[C@@]2(C)[C@@H]3CC=C4[C@H](C[C@H](O)C(=O)C4(C)C)[C@]3(C)C(=O)C[C@]12C [cucurbitacin B]							enhanced along with the extended time and increased dose
